Laboratory results published in BindingDB's records for doi:10.1002/cbic.201200571 (Technical University of Dortmund, 2013).

Legend:
[1] = target: Acyl-protein thioesterase 1 (Homo sapiens, UniProt O75608); test: Enzymatic Protein Activity Assay
Experimental: (§1) The enzyme activities were determined by measuring the release of fluorescent 6,8-difluoro-4-methylumbelliferone (DiFMU) by the APT hydrolysis of DiFMU octanoate (DiFMUO) in a Tecan Infinite M200 microplate reader in a 96-well format.

[2] = target: Acyl-protein thioesterase 2 (Homo sapiens, UniProt O95372); test: Enzymatic Protein Activity Assay
Experimental: as §1

Sequence of Acyl-protein thioesterase 2 (O95372 whole entry): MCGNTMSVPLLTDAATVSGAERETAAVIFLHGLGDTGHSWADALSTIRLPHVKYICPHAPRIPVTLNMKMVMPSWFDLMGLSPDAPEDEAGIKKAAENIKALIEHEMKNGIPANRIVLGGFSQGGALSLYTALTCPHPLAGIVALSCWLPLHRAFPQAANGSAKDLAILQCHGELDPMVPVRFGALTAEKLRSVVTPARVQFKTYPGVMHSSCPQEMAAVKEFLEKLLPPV
Sequence of Acyl-protein thioesterase 1 (O75608 whole entry): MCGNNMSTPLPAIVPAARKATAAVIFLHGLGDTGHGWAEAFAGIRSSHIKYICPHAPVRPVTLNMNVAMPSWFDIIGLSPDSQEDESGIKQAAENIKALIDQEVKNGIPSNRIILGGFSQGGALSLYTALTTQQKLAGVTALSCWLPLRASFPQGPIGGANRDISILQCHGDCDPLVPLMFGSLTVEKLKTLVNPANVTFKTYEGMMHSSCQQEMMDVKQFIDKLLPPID

| SMILES | IC50 [1] | IC50 [2] |
| --- | --- | --- |
| OB(O)c1ccc(Cl)c(Cl)c1 [3,4-Dichlorophenyl boronic acid] | 1.1 µM | 0.138 µM |
| OB(O)c1ccccc1-c1ccccc1 [(2-phenylphenyl)boranediol] | > 50 µM | > 50 µM |
| OB(O)c1ccc(-c2ccccc2)cc1 [(4-phenylphenyl)boranediol] | 16.9 µM | 3.55 µM |
| OB(c1ccccc1)c1cccc(COCc2cccc(B(O)c3ccccc3)c2)c1 [Phenylboronic acid, 7] | 33.6 µM | 41.5 µM |
| OB(O)c1cc(F)cc(F)c1 [Phenylboronic acid, 8] | 0.51 µM | 1.97 µM |
| OB(O)c1cccc(Cl)c1 [Phenylboronic acid, 10] | 1.4 µM | 0.418 µM |
| OB(O)c1cc2ccccc2s1 [Phenylboronic acid, 11] | 2.3 µM | 0.529 µM |
| OB(O)c1ccc(Cl)cc1 [Phenylboronic acid, 18] | 4.6 µM | 4.18 µM |

Next, values leading:

| IC50 [1] | IC50 [2] | SMILES |
| --- | --- | --- |
| 2.7 µM | 4.1 µM | NCCOB(c1ccccc1)c1ccc(COCc2ccc(B(OCCN)c3ccccc3)cc2)cc1 [Phenylboronic acid, 13] |
| 3.2 µM | 1.8 µM | CN(C)CCOB(c1ccccc1)c1cccc(COCc2cccc(B(OCCN(C)C)c3ccccc3)c2)c1 [Phenylboronic acid, 14] |
| 3.2 µM | 0.238 µM | OB(O)c1cc(Oc2ccccc2)ccc1I [Phenylboronic acid, 15] |
| 3.7 µM | 2.95 µM | COC(=O)c1cc(B(O)O)cc([N+](=O)[O-])c1 [Phenylboronic acid, 16] |
| 3.9 µM | 2.87 µM | CC(=O)c1cccc(B(O)O)c1 [Phenylboronic acid, 17] |
| 6.3 µM | 2.16 µM | Cc1ccc(Br)c(B(O)O)c1 [Phenylboronic acid, 19] |
| 13.5 µM | 11.3 µM | OB(O)c1cc2ccccc2o1 [Phenylboronic acid, 21] |
| 14.7 µM | 25.1 µM | OB(O)c1ccccc1 [Phenylboronic acid, 22] |
